In ChEMBL document CHEMBL1125304, “Synthesis and antitumor activity of 3- and 5-hydroxy-4-methylpyridine-2-carboxaldehyde thiosemicarbazones” (1992):

Legend:
Mus musculus [1] = test: Average weight change of mice bearing the L1210 leukemia (24 hr after tumor implantation) after intraperitoneal administration of the 40 mg/kg compound in the suspension form
Mus musculus [2] = test: Ratio of the survival time of treated to control mice bearing the L1210 leukemia after intraperitoneal administration of the 40 mg/kg compound in the suspension form
Mus musculus [3] = test: Average weight change of mice bearing the L1210 leukemia (24 hr after tumor implantation) after intraperitoneal administration of the 40 mg/kg compound in the DMSO solution form
Mus musculus [4] = test: Ratio of the survival time of treated to control mice bearing the L1210 leukemia after intraperitoneal administration of the 40 mg/kg compound in the DMSO solution form
Mus musculus [5] = test: Average weight change of mice bearing the L1210 leukemia (24 hr after tumor implantation) after intraperitoneal administration of the 50 mg/kg compound in the suspension form
Mus musculus [6] = test: Ratio of the survival time of treated to control mice bearing the L1210 leukemia after intraperitoneal administration of the 50 mg/kg compound in the suspension form

| SMILES | Average weight change (Mus musculus [1]) [%] | T/C (Mus musculus [2]) [%] | Average weight change (Mus musculus [3]) [%] | T/C (Mus musculus [4]) [%] | Average weight change (Mus musculus [5]) [%] | T/C (Mus musculus [6]) [%] |
| --- | --- | --- | --- | --- | --- | --- |
| Cc1cc(/C=N/N=C(/N)S)ncc1O | -3.4 | 186 | -7.4 | 138 | – | – |
| N/C(S)=N/N=C/c1ncccc1O | – | – | 1.5 | 114 | – | – |
| Cc1ccnc(/C=N/N=C(/N)S)c1O | – | – | 0.5 | 135 | 0.9 | 168 |
| N/C(S)=N/N=C/c1ccc(O)cn1 | – | – | 1.8 | 132 | – | – |
